Results taken from article PMC12085399, “Quantitative in vitro-to-in vivo extrapolation of human adrenergic and trace amine-associated receptor 1 potencies of pre-workout supplement ingredients using physiologically based kinetic modelling-based reverse dosimetry” (Archives of Toxicology, 2025).

How the values were obtained:
ADRβ1 = test: PBK modelling-based reverse dosimetry of in vitro EC50 to ED50, ADRβ1; set-up: species or system human; details: for ADRβ1 ED50: predicted human oral ED50 from in vitro EC50 (Pinckaers et al. [2024]) and modelled Cmax plasma venous
ADRα2A = test: PBK modelling-based reverse dosimetry of in vitro EC50 to ED50, ADRα2A; details: predicted human oral ED50 from in vitro EC50 (Pinckaers et al. [2024]) and modelled Cmax plasma venous
Excerpt: (§1) The in vitro effect concentrations (EC50), for activation of the α1A, α1B, α1D, α2A, α2B, β1 and β2 ADR activation and the activation of TAAR1, were obtained from our previous study (Pinckaers et al. [2024]).

TAAR1 = test: PBK modelling-based reverse dosimetry of in vitro EC50 to ED50, TAAR1; set-up: species or system human; details: for TAAR1 ED50: predicted human oral ED50 from in vitro EC50 (Pinckaers et al. [2024]) and modelled Cmax plasma venous
Excerpt: as §1

ADRα1A = test: PBK modelling-based reverse dosimetry of in vitro EC50 to ED50, ADRα1A; details: predicted human oral ED50 from in vitro EC50 (Pinckaers et al. [2024]) and modelled Cmax plasma venous
Excerpt: as §1

Caco-2 cells = test: in vitro; details: for fa (fraction absorbed) / ka (absorption rate constant): scaled from corrected Caco-2 Papp A-B, human; for metabolic breakdown by Caco-2 cells: Caco-2 transport studies, 10 µM
Method: (§2) Caco-2 cells (ATCC, Manassas, VA, USA; passage 30–44) were cultured in DMEM (Gibco, New York, USA) containing 4.5 g/L d-glucose, 4 mM L-glutamine and supplemented with 10% FBS (Gibco, Grand Island, NY, USA), 1% minimal essential medium non-essential amino acids (Gibco, Paisley, UK), 100 units/mL penicillin and 100 µg/mL streptomycin (Gibco, Grand Island, NY, USA). Cells were seeded at a density of 4.0 × 10^4 cells/cm^2 on polyester transwell insert membranes (12 mm insert, 0.4 µm pore size; Corning incorporated, Kennebunk, ME, USA). Cells were maintained in a humidified incubator with 5% CO2 at 37 °C for 21 or 22 days in 0.5 mL and 1.5 mL medium in the apical and basolateral compartments, respectively. The medium was refreshed every two or three days and always one day before the permeability assay.
(§3) On the day of the experiment, cells were washed twice with HBSS without phenol red (pH 7.4; Sigma-Aldrich, Steinheim, Germany) supplemented with 0.35 g/L sodium bicarbonate and 25 mM HEPES and they were equilibrated in this supplemented HBSS for 15 min in a humidified incubator with 5% CO2 at 37 °C. […] These stocks were diluted to a final concentration of 10 µM in pre-warmed supplemented HBSS (final DMSO level = 0.1%). After 15 min, the transepithelial electrical resistance (TEER) was measured with an Epithelial Voltohmmeter (World Precision Instruments, Sarasota, USA). Compound transport was studied in two directions: from the apical to the basolateral compartment (A-B) and from the basolateral to the apical compartment (B-A). For A-B experiments, 450 µL of the compound (10 µM) was added to the apical side and 1200 µL supplemented HBSS was added to the basolateral side. A sample of 50 µL was removed immediately from the apical compartment at time point zero. After 15 and 30 min, samples were taken from the basolateral compartment. Cells were kept in the incubator during the experiment. After 60 min, medium from both compartments was sampled, cells were washed twice with supplemented HBSS and were maintained in the incubator. After 15 min, the TEER was measured again to check for epithelial barrier damage due to compound exposure. After this, cells were lysed in RIPA buffer (Thermo Scientific, Rockford, IL, USA). For B-A experiments, 400 µL of supplemented HBSS was added to the apical side and 1250 µL of the compound (10 µM) was added to the basolateral side. A sample of 50 µL was removed immediately from the basolateral compartment at time point zero. After 15 and 30 min, samples were taken from the apical compartment. After 60 min, samples were taken similarly as in A-B experiments. The sampled medium and cell lysates were stored at −20 °C till the day of the liquid chromatography–mass spectrometry (LC–MS/MS) analysis. All experiments were run in duplicate. The compounds were quantified with LC–MS/MS as described in Sect. "LC–MS/MS analysis".
(§4) Before chemical analysis, cell lysates were two times diluted in ice-cold methanol and centrifuged at 15,000 rpm at 4 °C. The supernatant was then injected into the LC–MS/MS system. Sampled buffer from donor compartments was diluted 40 times in buffer and samples from the receiver compartment were analysed undiluted. Standards were prepared in the same assay buffer to quantify the amount of compound in medium samples. For quantification of compounds in cell lysates, standards were prepared in a mixture of 50% RIPA buffer and 50% methanol.
(§5) All data are presented as mean ± SD.
(§6) For the < Tsi > a value of 3.32 h was used (Grandoni et al. [2019]).

in vitro = details: human; for Papp B→A at 60 min, 10 µM / efflux ratio at 60 min, 10 µM: Caco-2, pH 7.4; for recovery at 60 min, 10 µM: after 60 min, mean ± SD
Method: as §2, §3, §4, §5, §6

ADRβ2 = test: PBK modelling-based reverse dosimetry of in vitro EC50 to ED50, ADRβ2; details: predicted human oral ED50 from in vitro EC50 (Pinckaers et al. [2024]) and modelled Cmax plasma venous
Excerpt: as §1

[1] = Caco-2, pH 7.4, Papp A-B corrected, corrected for the difference between Papp A-B of metoprolol in this study and in literature
[2] = Caco-2, pH 7.4, Papp A-B, Caco-2, apical to basolateral, 10 µM, HBSS pH 7.4, mean ± SD, duplicate
[3] = Caco-2, pH 7.4, Recovery (A-B), Caco-2, A-B experiments
[4] = Caco-2, pH 7.4, Recovery (B-A), Caco-2, B-A experiments

Compound	ADRβ1 ED50 (ADRβ1)	ADRα2A ED50 (ADRα2A)	TAAR1 ED50 (TAAR1) [mg/kg bw]	ADRα1A ED50 (ADRα1A)	fa (fraction absorbed) (Caco-2 cells)	ka (absorption rate constant) (Caco-2 cells) [h⁻¹]	Papp B→A at 60 min, 10 µM (in vitro) [×10⁻⁶ cm/s]	efflux ratio at 60 min, 10 µM (in vitro)	Papp A→B at 60 min, 10 µM (in vitro; [1]) [×10⁻⁶ cm/s]	Papp A→B at 60 min, 10 µM (in vitro; [2]) [×10⁻⁶ cm/s]	recovery at 60 min, 10 µM (in vitro; [3]) [%]	recovery at 60 min, 10 µM (in vitro; [4]) [%]	ADRβ2 ED50 (ADRβ2)	predicted equivalent oral dose, times lower than the dose of higenamine (ADRβ1; ADRβ1, dose needed to reach the internal effect concentration) [times]	dose needed to reach internal effect concentrations, times lower than the dose of higenamine (TAAR1; TAAR1, Fig. 6F) [times]	metabolic breakdown by Caco-2 cells (Caco-2 cells)
CN(C)CCc1ccccc1 [Dimethylphenethylamine, N,N-dimethylphenethylamine]	– (compounds with a dash (-) did not activate the receptors in vitro at concentrations ≤ 300 µM)	– (compounds with a dash (-) did not activate the receptors in vitro at concentrations ≤ 300 µM)	14.0	– (compounds with a dash (-) did not activate the receptors in vitro at concentrations ≤ 300 µM)	1.00	3.66	13.1 ± 0.51	0.891	53.5	14.7 ± 0.244	76.7 ± 0.06	93.3 ± 4.81	– (compounds with a dash (-) did not activate the receptors in vitro at concentrations ≤ 300 µM)	–	–	–
CNCC(O)c1ccccc1 (centres unmarked) [Halostachine, halostachine]	– (compounds with a dash (-) did not activate the receptors in vitro at concentrations ≤ 300 µM)	– (compounds with a dash (-) did not activate the receptors in vitro at concentrations ≤ 300 µM)	88.9	10.5 mg/kg bw	1.00	3.46	10.3 ± 0.649	0.786	47.8	13.1 ± 0.144	84 ± 3.18	93.9 ± 0.0289	– (compounds with a dash (-) did not activate the receptors in vitro at concentrations ≤ 300 µM)	–	–	–
Oc1ccc(CC2NCCc3cc(O)c(O)cc32)cc1 (centres unmarked) [Higenamine, higenamine]	0.211 mg/kg bw	– (compounds with a dash (-) did not activate the receptors in vitro at concentrations ≤ 300 µM)	6.09	– (compounds with a dash (-) did not activate the receptors in vitro at concentrations ≤ 300 µM)	0.860	0.246	0.0612 ± 0.00186	1	0.223	0.061 ± 0.0351	104 ± 0.35	105 ± 1.06	2.92 mg/kg bw	–	–	–
CN(C)CCc1ccc(O)cc1 [Hordenine, hordenine]	– (compounds with a dash (-) did not activate the receptors in vitro at concentrations ≤ 300 µM)	234 mg/kg bw	15.9	– (compounds with a dash (-) did not activate the receptors in vitro at concentrations ≤ 300 µM)	1.00	3.46	11.2 ± 0.22	0.862	47.3	13 ± 0.192	96.7 ± 1.27	107 ± 0.0262	– (compounds with a dash (-) did not activate the receptors in vitro at concentrations ≤ 300 µM)	–	–	–
CC(C)NCC(O)c1ccc(O)cc1 (centres unmarked) [Isopropyloctopamine, isopropyloctopamine]	–	– (compounds with a dash (-) did not activate the receptors in vitro at concentrations ≤ 300 µM)	1.26	– (compounds with a dash (-) did not activate the receptors in vitro at concentrations ≤ 300 µM)	0.994	0.818	0.652 ± 0.0444	–	2.56	0.703 ± 0.041	79.8 ± 2.19	76.5 ± 1.27	– (compounds with a dash (-) did not activate the receptors in vitro at concentrations ≤ 300 µM)	2.5	4.8	–
NCCc1ccc(O)cc1 [Tyramine, tyramine]	–	– (compounds with a dash (-) did not activate the receptors in vitro at concentrations ≤ 300 µM)	34.7	– (compounds with a dash (-) did not activate the receptors in vitro at concentrations ≤ 300 µM)	1.00	1.50	1.13 ± 0.67	–	8.7	2.38 ± 1.19	114 ± 11.2	84 ± 6.25	– (compounds with a dash (-) did not activate the receptors in vitro at concentrations ≤ 300 µM)	–	–	not observed
CNCC(O)c1ccc(O)cc1 (centres unmarked) [p-Synephrine, Synephrine]	–	139 mg/kg bw	127	3.32 mg/kg bw	0.997	0.951	0.22 ± 0.0453	–	3.47	0.951 ± 0.497	109 ± 1.48	100 ± 4.89	– (compounds with a dash (-) did not activate the receptors in vitro at concentrations ≤ 300 µM)	–	–	not observed
